For test [1], the system named is P. falciparum NF54 strain. The experiment in a line: [3H]-hypoxanthine incorporation assay, NF54. It counts as cell-based, Plasmodium falciparum. The conditions noted are these: Plasmodium falciparum. The method, then:
In vitro time-, stage-, and concentration-dependent effects were assessed using pyrimethamine as a stage-specific and slow-acting control, as described elsewhere.

Test [2] deals with P. falciparum K1 (Thailand). The experiment in a line: [3H]-hypoxanthine incorporation assay, K1. It is filed as cell-based, Plasmodium falciparum. Conditions: Plasmodium falciparum.
Test [3] relates to P. falciparum W2 (Vietnam). The experiment in a line: [3H]-hypoxanthine incorporation assay, W2. It is filed as cell-based, Plasmodium falciparum. Conditions: Plasmodium falciparum.
In test [4] the test system is P. falciparum 7G8 (Brazil). The experiment in a line: [3H]-hypoxanthine incorporation assay, 7G8. It counts as cell-based, Plasmodium falciparum. Conditions: Plasmodium falciparum.
Test [5] deals with P. falciparum TM90C2A (Thailand). As to the kind of experiment: [3H]-hypoxanthine incorporation assay, TM90C2A. It counts as cell-based, Plasmodium falciparum. The conditions noted are these: Plasmodium falciparum.
For test [6], the system named is P. falciparum V1/S (Vietnam). As to the kind of experiment: [3H]-hypoxanthine incorporation assay, V1/S. Conditions: Plasmodium falciparum, read-out: 50% inhibitory concentration (IC50). It is filed as cell-based, Plasmodium falciparum.
Test [7] relates to P. falciparum D6 (Sierra Leone). As to the kind of experiment: [3H]-hypoxanthine incorporation assay, D6. It is filed as cell-based, Plasmodium falciparum. The conditions noted are these: Plasmodium falciparum.
Test [8] concerns P. falciparum clinical isolates (Papua, Indonesia). The experiment in a line: Ex vivo drug susceptibility, P. falciparum clinical isolates. It is filed as cell-based, Plasmodium falciparum. The conditions noted are these: Plasmodium falciparum, read-out: median IC50. The method, then:
(§1) […]. Thick blood films made from each well were stained with 5% Giemsa solution for 30 min and examined microscopically. The number of schizonts per 200 asexual-stage parasites was determined for each drug concentration and normalized to the control well.

The test system of test [9] is P. vivax clinical isolates (Papua, Indonesia). As to the kind of experiment: Ex vivo drug susceptibility, P. vivax clinical isolates. It is filed as cell-based, Plasmodium vivax. Conditions: Plasmodium vivax, read-out: median IC50. The method, then:
as §1

Test [10] concerns P. falciparum PfNF54^0230/N3. The experiment in a line: In vivo efficacy, P. falciparum mouse model (GSK). Conditions: oral quadruple-dose regimen, once a day. The method, then:
In vivo efficacy against P. falciparum was conducted at GSK according to the standard assay previously described. Female NODscidIL2Rγnull mice were engrafted with human erythrocytes and infected with the isolate P. falciparum PfNF54^0230/N3, a strain developed at GSK for growth in engrafted mice. […] Blood samples were collected on Days 3, 4, 5, 6, and 7 (n = 3 per time point) for parasitemia measurement by flow cytometry. Similarly, blood samples were collected at 0.5, 1, 2, 4, 6, 8, 12, 24, and 48 h after a single administration of 4.7 mg/kg of ACT-451840 to a parallel group of three P. falciparum-infected mice for PK parameters determination. Results are expressed exclusively as antimalarial activity in the P. falciparum murine model.

Test [11] relates to Cam3.II^C580Y parasites. The experiment in a line: microbe, parasite or virus in culture. It is filed as cell-based, P. falciparum. Conditions: for IC50: Plasmodium falciparum, 72 h. The method, then: (§2) Parasites were cultured at Columbia University Medical Center (New York, USA) as previously described (1). Cam3.II and V1/S parasites, which had been genetically engineered to express K13 wild-type or K13 C580Y were seeded in a 96-well plate at 0.2% parasitemia and 1% hematocrit (2). […] Parasites were then stained with SYBR Green I (Invitrogen) and MitoTracker Deep Red (ThermoFisher Scientific) for 20 minutes at 37 °C (3). Stained parasites were detected using a BD Accuri 6 Flow Cytometer, and analyzed using FlowJo Software. IC50 values were determined by nonlinear regression using GraphPad Prism 6.0. For statistical analyses, Student’s t-tests were performed, and significance was set at P < 0.05.
(§3) Values indicate mean ± SEM, shown in nM. Significance determined by Student's t-test against parental lines.

Test [12] deals with Cam3.II^rev parasites (K13 wild-type). The experiment in a line: microbe, parasite or virus in culture. It counts as cell-based, P. falciparum. Conditions: for IC50: Plasmodium falciparum, 72 h. The method, then: as §2, §3
Test [13] has as its system GFP-transfected P. berghei ANKA strain. As to the kind of experiment: In vivo efficacy, P. berghei mouse model. Details: species or system Plasmodium berghei in female NMRI mice. The conditions noted are these: 100 mg/kg quadruple-dose regimen. The method, then:
In vivo efficacy against P. berghei was conducted at the Swiss TPH as previously described, with the modification that female NMRI mice from Harlan (Horst, The Netherlands) (n = 3) were infected with a GFP-transfected P. berghei ANKA strain (kindly donated by A. P. Waters and C. J. Janse, Leiden University Medical Center, The Netherlands) and parasitemia was determined using standard flow cytometry techniques. ACT-451840 was dissolved or suspended in corn oil before dosing and administered 24 h after infection (single-dose regimen) or 24, 48, and 72 h after infection (triple-dose regimen). With the single-dose regimen, blood was collected on Day 3 (72 h after infection). Samples for the triple-dose regimens were collected on Day 4 (96 h after infection). Antimalarial activity was calculated as the difference between the mean percent parasitemia for the control and treated groups expressed as a percent relative to the control group, consisting of five mice. Control mice were euthanized on Day 4 in order to prevent death typically occurring on Day 6. For the consistency in PK/PD modeling, Day 5 instead of Day 6 was considered the day of death, because treated animals were always euthanized one day before their natural death for animal welfare reasons. Animals were considered cured if there were no detectable parasites on Day 30 post-infection. To confirm the reliability of this assumption, blood from the surviving mice in curative experiments was inoculated into uninfected mice, and no parasitemia developed in these mice even after 30 d. The antimalarial efficacy is defined either as antimalarial activity or as survival: the two readouts of the P. berghei murine model.

Test [14] has as its system P. falciparum strain 3D7 (MR4). On the set-up: method as in PMID 16735432. Conditions: 10 x IC50; cited from earlier work.
For test [15], the system named is V1/S parasites (K13 wild-type). As to the kind of experiment: microbe, parasite or virus in culture. It is filed as cell-based, P. falciparum. The method, then:
as §2, §3

Test [16] relates to V1/S^C580Y parasites. The experiment in a line: microbe, parasite or virus in culture. It counts as cell-based, P. falciparum. The method, then:
as §2, §3

The mark [17] stands for this setting: K1, read-out: 50% inhibitory concentration (IC50).
[18] abbreviates: 7G8, read-out: 50% inhibitory concentration (IC50).
Where [19] appears, read: read-out: 50% inhibitory concentration (IC50).
Setting [20] is: D6, read-out: 50% inhibitory concentration (IC50).
The mark [21] stands for this setting: P. falciparum clinical isolates, n = 27 (closed symbols).
Setting [22] is: P. vivax clinical isolates, n = 34 (open symbols).

Where two headings read alike, the source gives them in different places.

Consider `CCN(CC)CCCC(C)Nc1ccnc2cc(Cl)ccc12` (stereo not shown) [Chloroquine, chloroquine], for which the IC50 in test [1] (NF54, read-out: 50% inhibitory concentration (IC50)) was 11 ± 2.1 nM; in [2] (setting [17]) it was 303 ± 37 nM; in [3] (W2, read-out: 50% inhibitory concentration (IC50)), 326 ± 38 nM; in [4] (setting [18]), 137 ± 21 nM; in test [5] (setting [19]) it was 174 ± 19 nM; in test [6], 458 ± 66 nM. In addition, the IC50 in test [7] (setting [20]) stood at 16 ± 1.2 nM; in test [8], 101 nM; in [9], 43.9 nM. Besides, in [10], the “effective dose resulting in 90% antimalarial activity (ED90)” value turned out to be 4.9 mg/kg.
Turning to `C[C@H]1[C@H](OC(=O)CCC(=O)O)O[C@@H]2O[C@@]3(C)CC[C@H]4[C@H](C)CC[C@@H]1[C@@]24OO3` [Artesunate, artesunate], the IC50 in test [2] (setting [17]) came out at 2.7 ± 0.4 nM; in test [4] (setting [18]) it was 1.8 ± 0.2 nM; in [5] (setting [19]) it was 4.6 ± 1.7 nM; in test [6], 3.2 ± 0.5 nM; in test [7] (setting [20]), 7.1 ± 1.9 nM; in [11] it was 6.6 ± 0.3 nM. Moreover, the results for the IC50 in [12], in test [8] (setting [21]) and in [9] (setting [22]) were 6.7 ± 0.7 nM, 2.6 nM and 2.9 nM, respectively. Besides, in [13], the infected mice cured worked out at 50%.
With `C[C@@H]1CC[C@H]2[C@@H](C)C(=O)O[C@@H]3O[C@@]4(C)CC[C@@H]1[C@]32OO4` [artemisinin], the “parasite clearance time to kill 99.9% of the initial population” value in test [14] is “less than 24 h”.
With `O=C1C(O)=C([C@H]2CC[C@H](c3ccc(Cl)cc3)CC2)C(=O)c2ccccc21` [atovaquone], the “lag phase in the killing curve” value in [14] is listed as 48 h.
Take `CCN(CC)Cc1cc(Nc2ccnc3cc(Cl)ccc23)ccc1O` [Amodiaquine]: the IC50 was found to be 16.8 nM in test [8] (setting [21]) and 12.3 nM in [9] (setting [22]).
For the compound `OC(c1cc(C(F)(F)F)nc2c(C(F)(F)F)cccc12)C1CCCCN1` (stereo not shown) [Mefloquine, mefloquine], the IC50 fold change in [11] (Cam3.II^C580Y versus Cam3.II^rev) is recorded as 1.2; in test [12] (Cam3.II^rev (parental reference line)) it was 1.0; in [15] (V1/S (parental reference line)), 1.0; in test [16] (V1/S^C580Y versus V1/S) it was 0.6. The IC50 in [11] was 14 ± 0.9 nM; in [12], 12 ± 1.5 nM; in [15] (Plasmodium falciparum, 72 h) it was 1.3 ± 0.4 nM; in [16] (Plasmodium falciparum, 72 h), 0.8 ± 0.3 nM; in test [8] (setting [21]), 13.4 nM; in test [9] (setting [22]) it was 15.2 nM.
Consider `Clc1ccc2c(N3CCN(CCCN4CCN(c5ccnc6cc(Cl)ccc56)CC4)CC3)ccnc2c1` [Piperaquine], for which the values for the IC50 in test [8] (setting [21]) and in test [9] (setting [22]) were 25 nM and 14.8 nM, respectively.
Regarding `CCc1nc(N)nc(N)c1-c1ccc(Cl)cc1` [Pyrimethamine, pyrimethamine], the IC50 was 18 ± 0.8 nM in test [1] (read-out: 50% inhibitory concentration (IC50), NF54, no resistance, mean ± SD, n = 3); 10100 nM in test [2] (read-out: 50% inhibitory concentration (IC50), K1, resistance CQ, SUL, PYR, CYC, mean ± SD); 13900 nM in [3] (read-out: 50% inhibitory concentration (IC50), W2, resistance CQ, SUL, PYR, CYC, mean ± SD); 10500 nM in [4] (read-out: 50% inhibitory concentration (IC50), 7G8, resistance CQ, PYR, CYC, mean ± SD); 19200 nM in [5] (read-out: 50% inhibitory concentration (IC50), resistance CQ, PYR, MFQ, CYC, mean ± SD); 21900 nM in test [6] (V1/S, resistance CQ, SUL, PYR, CYC, mean ± SD). The IC50 in test [7] (read-out: 50% inhibitory concentration (IC50), D6, resistance MFQ, mean ± SD) amounted to 5.4 ± 1.3 nM.
